Test results: patent publication US9782412B2, “Preventive and/or therapeutic agent of immune disease” (TAIHO PHARMACEUTICAL CO., LTD., priority 2015, dated 2017)
Like-named read-outs stand apart in the source and are kept apart here.

Assays:
TNP-IgE mice = assay: Mouse antigen-induced dermatitis model; type: in vivo; details: 30 minutes before allergen, 2 hours after antigen
Text: Type I allergy models accompanied by a skin symptom (a dermatitis model) were produced, with TNP-IgE mice (CLEA Japan, Inc.). The mice are genetically modified BALB/c mice that constantly produce an IgE specific to hapten TNP (trinitrophenol) which is widely used as an allergen (antigen). It is possible to induce an allergic reaction in the mice, only by administering an allergen, without carrying out an immunization. […] An average value of thickening values of both ears was obtained as a value of an individual (provided that a previous value before the allergen application was 0 mm).
Ear swelling control ratio (%) was calculated by the following formula. Ear swelling control ratio (%)=(1−(Average value of ear thickening of compound administered group)/(Average value of ear thickening of vehicle administered group))×100

RBL-2H3 cells = assay: Inhibitory activity against allergic reaction using RBL-2H3 cells (PGD2 production); type: cell-based, rat; details: anti-DNP IgE / DNP-BSA, read-out: PGD2 production inhibitory concentration (IC50, (nM))
Experimental: Rat basophilic leukemia cells, RBL-2H3, were suspended in MEM medium containing 10% FBS, and then the cells were inoculated in a culture plate, and cultured in a CO2 incubator (Sanyo Electric Biomedical Co., Ltd.) at 37° C. for 12 hours. After a culture supernatant was removed and the cells were washed, an anti-DNP-mouse IgE (Alpha Diagnostic Inc.) solution was added thereto, and the cells were cultured in the CO2 incubator for 1 hour. After a culture supernatant was removed and the cells were washed, an MEM medium was added thereto.
Further, a DNP-BSA (LSL, Inc.) solution was added thereto and the cells were cultured in the CO2 incubator for 15 minutes. A culture supernatant was collected and reacted, with PGD2-MOX EIA kit (Cayman Chemical Inc.) on the basis of the protocol attached thereto, and absorbance was measured by SUNRISE RAINBOW THERMO (TECAM Inc.).

MRL/lpr mice = assay: Mouse systemic lupus erythematosus model; type: in vivo; details: at the doses used in the test
Experimental: MRL/lpr mice (Japan SLC, Inc.) were used to evaluate drug efficacy in this test, since the mice are widely used as mice models in which symptoms of autoimmune diseases similar to human systemic lupus erythematosus spontaneously express. A grouping was carried out on the basis of swellings of lymph nodes in submaxilla and axilla at 14 weeks old, and once-daily oral administration was continued for 42 days from the day of grouping, with vehicle or Example Compound 13 suspension. Urea nitrogen concentration and anti-dsDNA antibody concentration in peripheral blood at the final administration day were measured.

[1] = Influence on body weight of SD rat by repeated administration; type: in vivo
Experimental: The rats were grouped as follows, with four animals in each group, by a random classification method such that the average body weights of the respective groups would be almost uniform (Day 1).
The body weight change (BWC) was used as an index indicating the systemic toxicity caused by the compound administration. The BWC was calculated by the following formula. BWC (%)=([(Rat body weight on 14 days after the administration)−(Rat body weight at the time of grouping)]/(Rat body weight at the time of grouping))×100
The relative body weight change ratios in the each compound-administered groups were calculated by the following formula when the BWC in the vehicle-administered group was set as 1, and the results are indicated in Table 25. Relative body weight change ratio (%)=(BWC in the compound-administered group)/BWC in the vehicle-administered group)×100

[2] = molecular target: T1, phosphorylated BTK protein in Ramos cells (Homo sapiens, UniProt Q06187); assay: Inhibitory activity against B-cell activation using Ramos cells (BTK phosphorylation); type: cell-based; details: anti-human IgM stimulation, pY223 Western blotting, read-out: Phosphorylated BTK inhibitory concentration (IC50, (nM))
T1 construct: endogenous in cells; host or cells: Ramos cells
Experimental: The human B-cell lymphoma-derived cell line, Ramos cells were suspended in RPMI1640 medium, and then the cells were inoculated in a culture plate at a concentration of 2.0×10^6 (cells/well). The cells were cultured in a CO2 incubator (Sanyo Electric Biomedical Co., Ltd.) at 37° C. for 12 hours. […] Then, 10 minutes of stimulation was provided with Goat F(ab′)2 anti-human IgM antibody-UNLB (southern biotech Corp.). Thereafter, the cells were harvested, and 50 μL of (a cell extract (NP-40; Invitrogen, Inc.) containing 1×protease inhibitor (Hoffmann-La Roche AG) and 1×phosphatase cocktail inhibitor (Sigma-Aldrich Co.)) was added to the cell pellets. The cell pellets were left to stand for 10 minutes on ice. The amount of protein in the collected cell extract was quantitatively analyzed by a DC protein assay (Bio-Rad Laboratories, Inc.), and 20 μg of proteins per lane was applied to a Criterion TGX™ (Bio-Rad Laboratories, Inc.). After electrophoresis was performed, Western blotting was performed with Trans-Blot™ Turbo™ (Bio-Rad Laboratories, Inc.). Thereafter, phosphorylated BTK protein and BTK protein were detected with LAS4000 (GE Healthcare, Inc.) with a BTK phosphor (pY223) antibody (EPITOMICS Inc.) and a BTK antibody (Abcam, plc.).

[3] = system: mouse collagen-induced arthritis model; assay: Mouse collagen-induced arthritis model (therapeutic effect), Test Example 8; type: in vivo; details: therapeutic administration, FIG. 3
Experimental: (§1) Seven-week-old male/DBA/1 mice (CHARLES RIVER LABORATORIES JAPAN, INC.) were intracutaneously injected in the dorsum with 100 μL/body of an equal amount-mixed solution (emulsion) of a 4 mg/mL bovine type 2 collagen solution (Collagen Research Center) and a complete freund's adjuvant (DIFCO Inc.) (Initial immunization). After 21 days therefrom, the mice were intracutaneously injected in the base of the tail with 100 μL/body of the equal amount-mixed solution (emulsion) of a 4 mg/mL of bovine type 2 collagen solution (Collagen Research Center) and a complete freund's adjuvant (DIFCO Inc.) to carry out an additional immunization. […] Symptoms of arthritis in day 0, day 4, day 7, day 11, and day 14 were scored with the naked eye (0: No change, 1: Swelling of a finger, 2: Swelling of two fingers or more, 3: Swelling of instep, 4: Swelling of all fingers besides swelling extending to wrist/ankle), and a total of four limbs was obtained as a point of an individual (maximum 16 points).

[4] = system: mouse collagen-induced arthritis model; assay: Mouse collagen-induced arthritis model (therapeutic effect), Test Example 7; type: in vivo; details: once-a-day oral for 15 days from sixth day after additional immunization, FIG. 2
Experimental: as §1

[5] = Rattus norvegicus, RBL-2H3, RBL-2H3 cells
[6] = repeated administration for two weeks

T1 sequence (Q06187 whole entry): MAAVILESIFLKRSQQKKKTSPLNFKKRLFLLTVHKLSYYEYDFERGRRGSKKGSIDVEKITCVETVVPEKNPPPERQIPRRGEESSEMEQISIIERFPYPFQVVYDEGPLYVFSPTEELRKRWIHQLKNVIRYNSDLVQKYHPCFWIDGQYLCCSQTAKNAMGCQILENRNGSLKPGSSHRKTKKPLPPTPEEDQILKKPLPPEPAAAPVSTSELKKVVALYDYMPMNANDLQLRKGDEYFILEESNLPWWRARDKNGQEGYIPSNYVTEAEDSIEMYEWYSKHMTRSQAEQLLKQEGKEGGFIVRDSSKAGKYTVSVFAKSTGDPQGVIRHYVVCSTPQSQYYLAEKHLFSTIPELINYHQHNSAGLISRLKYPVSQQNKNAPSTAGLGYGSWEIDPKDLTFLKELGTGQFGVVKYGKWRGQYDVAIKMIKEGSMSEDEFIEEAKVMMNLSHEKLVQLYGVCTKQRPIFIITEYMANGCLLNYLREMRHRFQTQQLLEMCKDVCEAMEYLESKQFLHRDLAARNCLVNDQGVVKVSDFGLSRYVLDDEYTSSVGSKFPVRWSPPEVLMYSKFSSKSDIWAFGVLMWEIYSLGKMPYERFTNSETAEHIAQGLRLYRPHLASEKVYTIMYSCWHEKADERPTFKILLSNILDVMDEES

| Compound | Ear swelling control ratio (%) (TNP-IgE mice; 1 mg/kg oral) | Ear swelling control ratio (%) (TNP-IgE mice; 3 mg/kg oral) | IC50 (RBL-2H3 cells; [5]) [nM] | remarkable decrease in body weight (MRL/lpr mice) | Relative body weight change ratio (%) ([1]; 750 mg/kg orally once a day, two weeks) | IC50 [2] [nM] | IC50 (RBL-2H3 cells; RBL-2H3 cells) [nM] | arthritis score [3] | loose bowel [1, 6] | rat body weight increase compared with the vehicle-administered group [1, 6] | arthritis score [4] |
| --- | --- | --- | --- | --- | --- | --- | --- | --- | --- | --- | --- |
| C=CC(=O)N1CCC[C@@H](n2nc(C(=O)Nc3nc4ccccc4o3)c3c(N)ncnc32)C1 [Example 13, (R)-1-(1-acryloylpiperidin-3-yl)-4-amino-N-(benzo[d]oxazol-2-yl)-1H-pyrazolo[3,4-d]pyrimidine-3-carboxamide] | 54 | 79 | 26 | not recognized | 79.1 | 0.25 | – | – | – | – | – |
| C=CC(=O)N1CCC[C@@H](n2nc(-c3ccc(Oc4ccccc4)cc3)c3c(N)ncnc32)C1 [Reference compound 1, (R)-1-(3-(4-amino-3-(4-phenoxyphenyl)-1H-pyrazolo[3,4-d]pyrimidin-1-yl)piperidin-1-yl)prop-2-en-1-one, reference compound] | – | – | ~350 | – | – | – | 348 | delayed the further increase of the increased arthritis score | individuals suffering from loose bowel were recognized | very small | delayed the further increase of the increased arthritis score |
